Consider seven compounds from publication PMC4849076, “New Cyclic Lipopeptides of the Iturin Class Produced by Saltern-Derived Bacillus sp. KCB14S006” (Marine Drugs, 2016).

Data set [1] concerns Aspergillus flavus KCTC 6984. Kind of data set: Antifungal assay (MIC), Aspergillus flavus. The note with it: for MIC: Aspergillus flavus, potato dextrose broth, 2% of overnight cultures, 28 °C, 72 h, lowest concentration preventing visible growth; for Antifungal activity compared with 3 and 4: A. flavus, from MIC. Type of data set: cell-based. The procedure: (§1) The following microorganisms were used as test strains in the assay; Aspergillus flavus KCTC 6984, Neurospora crassa KCTC 6079, Candida tropicalis KCTC 7830, Candida albicans KCTC 7678, Fusarium oxysporum f. sp. cucumerinum KCTC 6084, Alternaria brassicicola ATCC 96836 and Penicillium griseofulvum KCTC 6435. Potato dextrose broth (Difco Laboratories) was used for a test medium. For C. albicans and C. tropicalis, 100 μL of inoculum suspension of 10^5 spores/mL was plated into 96-well plates containing diluted test compounds, and the plates were incubated at 28 °C for 48 h. For A. flavus, N. crassa, F. oxysporum, A. brassicicola and P. griseofulvum, 100 μL of cell suspension containing 2% of overnight cultures in 96-well were incubated at 28 °C for 72 h. The MIC values were determined as the lowest concentration of each compound that prevented visible growth.

The subject of data set [2] is Neurospora crassa KCTC 6079. The experiment in a line: Antifungal assay (MIC), Neurospora crassa. Type of data set: cell-based. The note with it: for MIC: Neurospora crassa, potato dextrose broth, 2% of overnight cultures, 28 °C, 72 h, lowest concentration preventing visible growth; for Antifungal activity compared with 3 and 4: N. crassa, from MIC. As for the experimental part: as §1

Data set [3] relates to Candida tropicalis KCTC 7830. Kind of data set: Antifungal assay (MIC), Candida tropicalis. In kind it is cell-based. To be noted: 10^5 spores/mL, 28 °C, 48 h, lowest concentration preventing visible growth. The procedure:
as §1

Data set [4] relates to Candida albicans KCTC 7678. Kind of data set: Antifungal assay (MIC), Candida albicans. Type of data set: cell-based. The note with it: for MIC: Candida albicans, potato dextrose broth, 10^5 spores/mL, 28 °C, 48 h, lowest concentration preventing visible growth; for Antifungal activity compared with 3 and 4: C. albicans, from MIC. The procedure: as §1
Data set [5] concerns Fusarium oxysporum f. sp. cucumerinum KCTC 6084. The experiment in a line: Antifungal assay (MIC), Fusarium oxysporum. In kind it is cell-based. The procedure: as §1
Data set [6] has as its system Alternaria brassicicola ATCC 96836. Kind of data set: Antifungal assay (MIC), Alternaria brassicicola. The note with it: 2% of overnight cultures, 28 °C, 72 h, lowest concentration preventing visible growth. In kind it is cell-based. The procedure:
as §1

Data set [7] deals with Penicillium griseofulvum KCTC 6435. The experiment in a line: Antifungal assay (MIC), Penicillium griseofulvum. Type of data set: cell-based. To be noted: for MIC: Penicillium griseofulvum, potato dextrose broth, 2% of overnight cultures, 28 °C, 72 h, lowest concentration preventing visible growth; for Antifungal activity compared with 3 and 4: P. griseofulvum, from MIC. As for the experimental part:
as §1

A short description of the next data set: Cytotoxicity assay, HeLa. Type of data set: cell-based. The note with it: human, HeLa cells, DMEM + 10% fetal bovine serum, 37 °C, WST-8, absorbance 450 nm, read-out: Cytotoxic activity, IC50. As for the experimental part:
(§2) The human cervix epidermoid carcinoma cell line HeLa was cultured at 37 °C in DMEM (Invitrogen/Life Technologies, Carlsbad, CA, USA), supplemented with 10% fetal bovine serum (Sigma-Aldrich, St. Louis, MO, USA). src^ts-NRK cells, rat kidney cells that were infected with ts25, a T-class mutant of Rous sarcoma virus Prague strain, were cultured at permissive temperature (32 °C) in MEM (Sigma-Aldrich), supplemented with 10% calf serum (PAA Laboratories, Pashing, Austria). Each cell line was seeded into a 96-well plate (HeLa, 4 × 10^3 cells/well; src^ts-NRK, 1 × 10^4 cells/well) and then exposed to test compounds. After 48 h incubation, cell proliferation was determined using a Cell Count Reagent SF (Nacalai Tesque). Briefly, a 1/10 volume of WST-8 solution was added to each well, and the plates were incubated at 37 °C for 1 h. Then, the absorbance at 450 nm was measured in a microplate reader.

A short description of data set [8]: Cytotoxicity assay, src^ts-NRK. Type of data set: cell-based. To be noted: rat, src^ts-NRK cells, MEM + 10% calf serum, 32 °C (permissive temperature), WST-8, absorbance 450 nm, read-out: Cytotoxic activity, IC50. The procedure: as §2
Another data set concerns the target T1, human recombinant IDO (Homo sapiens, UniProt P14902).
T1 construct: made in house; host or cells: E. coli
Kind of data set: Indoleamine 2,3-dioxygenase (IDO) inhibition assay. Type of data set: biochemical. The procedure:
The enzymatic inhibition assay was performed with human recombinant IDO expressed in E. coli according to previously described method with some modifications. The reaction mixture (200 μL) contained 50 mM potassium phosphate buffer (pH 6.5), 20 mM ascorbic acid, 10 μM methylene blue, 200 μM L-Trp, 20 μg/mL catalase and a sample in 2 μL of DMSO. The samples were serially diluted […] from 50 to 0.1 μM. The reaction was started by the addition of IDO and continued at 37 °C for 60 min. After termination of the reaction by addition of 40 μL of 30% (w/v) trichloroacetic acid, the resulting mixtures were incubated at 60 °C for 15 min, followed by centrifugation at 2000 × g for 15 min. Finally, 125 μL of supernatant is added to 125 μL of p-dimethylaminobenzaldehyde (pDMAB) (2%, v/v) in acetic acid, and the absorbance at 480 nm was measured.

A further data set deals with MDA-MB-231. On the set-up: method as in PMID 25974307. The note with it: MDA-MB-231 breast cancer cells; cited from earlier work.
For the next data set, the system named is MCF-7. Details: method as in PMID 25974307. The note with it: MCF-7 breast cancer cells; cited from earlier work.
For another data set, the system named is Akt signaling network. Details: method as in PMID 25974307. To be noted: MDA-MB-231 and MCF-7 breast cancer cells; cited from earlier work.
[9] abbreviates: potato dextrose broth, 2% of overnight cultures, 28 °C, 72 h, lowest concentration preventing visible growth.

Converted amounts (≈) assume the structure as drawn. Where two headings read alike, the source gives them in different places. *1 amine or outer side, *2 acyl side, *3 side chain or, on linkers, in order; H or OH if unused. Where a SMILES comes first, the peptide text is derived from it. [ ]: non-standard residue; d: D form. X1 = CCC(C)CCCCCCCCCC[C@H](CC(=O)[*:2])N[*:1]; X2 = CC(C)CCCCCCCCCCC[C@H](CC(=O)[*:2])N[*:1]; Hyp = O=C(O)[C@@H]1C[C@@H](O)CN1

T1 sequence (P14902 whole entry): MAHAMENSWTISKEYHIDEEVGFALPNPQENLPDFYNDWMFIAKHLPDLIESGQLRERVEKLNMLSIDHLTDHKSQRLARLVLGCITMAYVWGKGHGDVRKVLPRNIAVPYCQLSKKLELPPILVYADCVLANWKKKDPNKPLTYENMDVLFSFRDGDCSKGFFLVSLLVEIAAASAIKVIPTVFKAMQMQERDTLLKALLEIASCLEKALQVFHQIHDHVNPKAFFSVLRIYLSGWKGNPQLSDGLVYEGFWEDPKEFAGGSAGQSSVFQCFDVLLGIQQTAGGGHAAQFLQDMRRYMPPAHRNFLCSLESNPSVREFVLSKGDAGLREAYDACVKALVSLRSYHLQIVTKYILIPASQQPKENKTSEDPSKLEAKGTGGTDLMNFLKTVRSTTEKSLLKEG

With `C[C@@H]1[C@H](O)[C@@H](C)/C=C/C=C/C=C/C=C/C=C/C=C/C=C/[C@H](O[C@@H]2O[C@H](C)[C@@H](O)[C@H](N)[C@@H]2O)C[C@@H]2O[C@](O)(C[C@@H](O)C[C@@H](O)[C@H](O)CC[C@@H](O)C[C@@H](O)CC(=O)O[C@H]1C)C[C@H](O)[C@H]2C(=O)O` [Amphotericin B, reference compound], the MIC stood at 0.195 µg/mL (≈ 0.211 µM) in data set [1] (KCTC6984, read-out: MIC); 0.098 µg/mL (≈ 0.106 µM) in data set [2] (KCTC6079, read-out: MIC); 0.781 µg/mL (≈ 0.845 µM) in [3] (KCTC7830, potato dextrose broth, read-out: MIC); 0.098 µg/mL (≈ 0.106 µM) in [4] (KCTC7678, read-out: MIC); 12.5 µg/mL (≈ 13.5 µM) in data set [5] (KCTC6084, 72 h); 0.391 µg/mL (≈ 0.423 µM) in data set [6] (ATCC96836, potato dextrose broth, read-out: MIC). The minimal inhibitory concentration (MIC) in data set [7] (KCTC6435, read-out: MIC) was found to be 3.12 µg/mL (≈ 3.38 µM).
Take `CC(C)CCCCCCCCCCC[C@@H]1CC(=O)N[C@@H](CC(N)=O)C(=O)N[C@H](Cc2ccc(O)cc2)C(=O)N[C@H](CC(N)=O)C(=O)N[C@@H](CCC(N)=O)C(=O)N2C[C@H](O)C[C@H]2C(=O)N[C@H](CC(N)=O)C(=O)N[C@@H](CO)C(=O)N1` [Compound 1, Iturin F1] (cyclo(N[dY][dN]Q[Hyp][dN]S[X2])): the “Antifungal activity compared with 3 and 4” value in [1] is “better activities than 3 and 4”; in data set [2], “better activities than 3 and 4”; in [4], “better activities than 3 and 4”; in data set [7], “better activities than 3 and 4”. Also, the MIC in data set [1] is 3.125 µg/mL (≈ 2.84 µM); in data set [2], 6.25 µg/mL (≈ 5.68 µM); in data set [3] (potato dextrose broth), 6.25 µg/mL (≈ 5.68 µM); in data set [4], 6.25 µg/mL (≈ 5.68 µM); in data set [5] (setting [9]), 25 µg/mL (≈ 22.7 µM); in [6] (potato dextrose broth), 25 µg/mL (≈ 22.7 µM). For the same compound, the minimum inhibitory concentration (MIC) in data set [7] is 3.125 µg/mL (≈ 2.84 µM). Besides, the IC50 at 48 h in the data set “Cytotoxicity assay, HeLa” came to 8.9 µM; in [8], 8.9 µM.
On to `CCC(C)CCCCCCCCCC[C@@H]1CC(=O)N[C@@H](CC(N)=O)C(=O)N[C@H](Cc2ccc(O)cc2)C(=O)N[C@H](CC(N)=O)C(=O)N[C@@H](CCC(N)=O)C(=O)N2C[C@H](O)C[C@H]2C(=O)N[C@H](CC(N)=O)C(=O)N[C@@H](CO)C(=O)N1` (stereo partly drawn) [Compound 2, Iturin F2] (cyclo(N[dY][dN]Q[Hyp][dN]S[X1])), for which the “Antifungal activity compared with 3 and 4” value in data set [1] is “better activities than 3 and 4”; in data set [2], “better activities than 3 and 4”; in data set [4], “better activities than 3 and 4”; in data set [7], “better activities than 3 and 4”. In addition, the MIC in [1] came out at 3.125 µg/mL (≈ 2.84 µM); in data set [2], 6.25 µg/mL (≈ 5.68 µM); in [3] (potato dextrose broth), 6.25 µg/mL (≈ 5.68 µM); in data set [4], 6.25 µg/mL (≈ 5.68 µM); in data set [5] (setting [9]) it was 25 µg/mL (≈ 22.7 µM); in data set [6] (potato dextrose broth) it was 25 µg/mL (≈ 22.7 µM). The compound also returned a minimal inhibitory concentration (MIC) in data set [7] of 3.125 µg/mL (≈ 2.84 µM). The IC50 at 48 h amounted to 7.8 µM in “Cytotoxicity assay, HeLa” and 7.4 µM in data set [8].
Regarding `CC(C)CCCCCCCCCCC[C@@H]1CC(=O)N[C@@H](CC(N)=O)C(=O)N[C@H](Cc2ccc(O)cc2)C(=O)N[C@H](CC(N)=O)C(=O)N[C@@H](CCC(N)=O)C(=O)N2CCC[C@H]2C(=O)N[C@H](CC(N)=O)C(=O)N[C@@H](CO)C(=O)N1` [Compound 3, Iturin A9] (cyclo(N[dY][dN]QP[dN]S[X2])), the MIC in data set [1] is 25 µg/mL (≈ 23 µM); in data set [2], 12.5 µg/mL (≈ 11.5 µM); in [3] (potato dextrose broth) it was 6.25 µg/mL (≈ 5.76 µM); in [4] it was 12.5 µg/mL (≈ 11.5 µM); in data set [5] (setting [9]) it was 25 µg/mL (≈ 23 µM); in data set [6] (potato dextrose broth), 25 µg/mL (≈ 23 µM). This compound had a minimum inhibitory concentration (MIC) in data set [7] of 6.25 µg/mL (≈ 5.76 µM). In addition, the IC50 at 48 h was 4.6 µM in the data set “Cytotoxicity assay, HeLa” and 5.2 µM in data set [8].
On to `CCC(C)CCCCCCCCCC[C@@H]1CC(=O)N[C@@H](CC(N)=O)C(=O)N[C@H](Cc2ccc(O)cc2)C(=O)N[C@H](CC(N)=O)C(=O)N[C@@H](CCC(N)=O)C(=O)N2CCC[C@H]2C(=O)N[C@H](CC(N)=O)C(=O)N[C@@H](CO)C(=O)N1` (stereo partly drawn) [Compound 4, Iturin A8] (cyclo(N[dY][dN]QP[dN]S[X1])), for which the MIC in data set [1] worked out at 12.5 µg/mL (≈ 11.5 µM); in [2], 12.5 µg/mL (≈ 11.5 µM); in data set [3] (potato dextrose broth) it was 6.25 µg/mL (≈ 5.76 µM); in [4], 12.5 µg/mL (≈ 11.5 µM); in data set [5] (setting [9]) it was 25 µg/mL (≈ 23 µM); in [6] (potato dextrose broth), 25 µg/mL (≈ 23 µM). Also, in data set [7], the MIC was 6.25 µg/mL (≈ 5.76 µM). The IC50 at 48 h worked out at 5.6 µM in the data set “Cytotoxicity assay, HeLa” and 9 µM in [8]. For the same compound, at human recombinant IDO (human recombinant IDO expressed in E. coli, 50 mM potassium phosphate pH 6.5, 200 μM L-Trp, 37 °C, 60 min, pDMAB, absorbance 480 nm, read-out: IDO inhibition, IC50), the IC50 came to 5.5 µM. Also, the “IDO inhibitory activity (in words)” value at human recombinant IDO (human recombinant IDO, pH 6.5, 200 μM L-Trp, 37 °C, 60 min, samples 0.1 to 50 μM) was “significant inhibitory activity”.
With `CC1=CC(=O)c2ccccc2C1=O` [menadione, reference compound], the IC50 at human recombinant IDO was found to be 0.64 µM.
Regarding iturin A, the Inhibition of proliferation entry in the data set on MDA-MB-231 and in the data set on MCF-7 was “inhibits the proliferation” in each case. Besides, the “Inhibition of Akt signaling network” value with Akt signaling network is on record as “inhibiting the Akt signaling network”.
